Legend:
[1] = tested on: human ovarian cancer cells (SKOV-3); test: Antiproliferative activity / viability assay; format: cell-based; conditions: SK-OV-3, 24 h, read-out: inhibition of cell proliferation
[2] = tested on: SKOV-3 cells; test: Cellular uptake by flow cytometry; format: cell-based, human; conditions: SKOV-3, Dox 5 μM, Dox-SS-Pyr 50 μM, Dox-SS-[C(WR)4K] 50 μM, 3 h, 37 °C, serum-free medium, triplicate
[3] = tested on: SKOV-3 cells; test: Fluorescence microscopy, cellular localization; format: cell-based, human; conditions: SKOV-3, 5 μM, DAPI nuclear stain
[4] = tested on: HT-1080 cells; test: Cellular uptake by flow cytometry; format: cell-based, human; conditions: HT-1080, Dox 5 μM, Dox-SS-Pyr 50 μM, Dox-SS-[C(WR)4K] 50 μM, 3 h, 37 °C, serum-free medium, triplicate

Structure (SMILES)	inhibition at 5 µM [1] [%]	cellular uptake (mean fluorescence) [2]	cellular localization ([3]; after 1 h)	cellular localization ([3]; after 24 h)	cellular uptake (mean fluorescence) [4]
COc1cccc2c1C(=O)c1c(O)c3c(c(O)c1C2=O)C[C@@](O)(C(=O)CO)C[C@@H]3O[C@H]1C[C@H](N)[C@H](O)[C@H](C)O1 [Dox, Doxorubicin]	76	higher cellular uptake in SKOV-3 and HT-1080 cells	localized in the nucleus	localized in the nucleus	higher cellular uptake in SKOV-3 and HT-1080 cells
COc1cccc2c1C(=O)c1c(O)c3c(c(O)c1C2=O)C[C@@](O)(C(=O)CO)C[C@@H]3O[C@H]1C[C@H](NC(=N)CCCS)[C@H](O)[C@H](C)O1 [Dox-SH, thiolated doxorubicin]			distributed mostly outside the nucleus		
COc1cccc2c1C(=O)c1c(O)c3c(c(O)c1C2=O)C[C@@](O)(C(=O)CO)C[C@@H]3O[C@H]1C[C@H](NC(=N)CCCSSc2ccccn2)[C@H](O)[C@H](C)O1 [Dox-SS-Pyr, pyridyl doxorubicin]			distributed mostly outside the nucleus		

From PMC8418874 (European journal of medicinal chemistry, 2018)
